Molecular target: Leucine--tRNA ligase (Staphylococcus aureus)
Assay: Compound was evaluated for its inhibitory activity against Leucyl-tRNA synthetase from staphylococcus aureus WCUH29

IC50: 186 µM
Structure (SMILES): CC[C@H](C)[C@H](N)C(=O)NS(=O)(=O)CC(=O)N[C@]1(C(=O)OC)[C@@H]2CN(C)C=C(C(N)=O)[C@@H]2C[C@@H]1O [(4aR,6S,7R,7aS)-7-[2-((2S,3S)-2-Amino-3-methyl-pentanoylsulfamoyl)-acetylamino]-4-carbamoyl-6-hydroxy-2-methyl-2,4a,5,6,7,7a-hexahydro-1H-[2]pyrindine-7-carboxylic acid methyl ester]
